One series has as its target EGFR kinase (Homo sapiens (Human), UniProt P00533). Briefly: Kinase assay for EGFR (TR-FRET, LanthaScreen). The format is biochemical. The settings on record: read-out: Kinase inhibition IC50 (nM) EGFR. On the procedure:
The extent to which the compounds of the present invention modulate EGFR kinase activity can be determined using time-resolved Fret (TR-FRET) assay (LanthaScreen® kinase activity assay, from InVitrogen). The assay employs EGFR kinase (PV3872, Invitrogen), Tb-Py20 antibody (PV3552, InVitrogen) and fluorescein-poly GT (PV3610, InVitrogen).
The assay is performed in a Black 384-well plate (available from Corning). EGFR kinase (is diluted in TR-FRET Dilution Buffer (PV3189, InVitrogen) at concentration of 0.4 ug/ml as stock solution, and then 2-fold serial diluted. Addition of 1 mM ATP initiated the reaction, and the reaction is incubated for […] at room temperature. 10 μL of the Tb-antibody (from InVitrogen)+EDTA (from InVitrogen) solution prepared was added to each well of the assay plate and mix briefly, and incubated for 30 min. The signal is monitored by using M5 microplate reader (Ex=332 nm, Em=488 nm and 518 nm). Each compound is tested in duplicate wells. EGFR without compound is used as control. Staurosporine (available from Sigma) is used as positive control compound. Inhibition was calculated as percentage of the EGFR activity (without compound).
(In TR-FRET formats the signal depends on donor and acceptor labels being close together.)

For a further series, the system named is BT474 cells. Description: Cell proliferation inhibition assay for BT474 (CCK-8). The settings on record: Homo sapiens, BT-474; 72h. The format is cell-based. The procedure: Human breast cancer BT474 cells was cultured in low glucose DMEM (Life Technologies 12320-032) containing 10% fetal bovine serum (FBS) at 37° C. in a humidified 10% CO2, 90% air incubator. Cells were harvested using trypsin EDTA, counted using a haemocytometer, and plated 10000 cell/well in a 96-well clear tissue culture plate. The cells were incubated for 24 h at 37° C. to allow adherence. A serials of concentrations of each compound (ranging from 30 um to 0.16 nM, 5-fold dilution) in 96-well plate, and incubated for 72h. Each concentration was tested in triplicate wells. During the cell proliferation assay, BT474 cells were cultured in low-glucose DMEM containing 5% FBS, 50 ug/ml gentamicin, and 0.3% v/v DMSO. The culture medium was removed via aspiration, and the cell viability was detected by using CCK-8 cell proliferation kit. The IC50 value measured for each compound in Examples 1 to 7 is <100 nM.

A short description of series [1]: Rat pharmacokinetics studies (plasma). Type of series: in vivo, Sprague Dawley rats. The procedure: Sample preparation: The test article each was dissolved in 10% DMSO and 90% of (40% HP-β-CD in deionized water) to yield concentration at 2 mg/mL for intravenous and oral administration.
Method development and plasma samples analysis were performed by Analytical Sciences Division of the Testing Facility by means of LC-MS/MS. The analytical results were confirmed using quality control samples for intra-assay variation (within day variation). The accuracy of >66% of the quality control samples was between 80-120% of the known value(s).
Each group consisted of 3 male Sprague Dawley rats (7-8 week old, 200-300 g body weight). The test articles were administered by a single bolus intravenous injection via the lateral tail vein or via oral gavage.
Blood samples (approximately 300 μl) were collected via retro-orbital puncture after anaesthesia using mixed gas (CO2:O2=7:3) into tubes containing EDTA-K3 anticoagulant at appropriate time points. 10 time points (Groups 1-2): Pre-dose and post-dose at 5 min, 15 min, 30 min, 1 h, 2 h, 4 h, 6 h, 8 h and 24 h.
Analysis: The PK blood samples were centrifuged at approximately 8000 rpm for (3 minutes at 2-8° C. and the resulting plasma were separated and stored frozen at approximately −80° C. (following separation, the plasma may be initially placed on ice prior to being stored in the −80° C. freezer). All the plasma samples were labeled with detailed information such as study number, animal number, matrix, time points of collection and date of collection.
Standard set of parameters including Area Under the Curve (AUC(0-t) and AUC(0-∞)), elimination half-live (T1/2), maximum plasma concentration (Cmax), time to reach maximum plasma concentration (Tmax), clearance (CL), and volume of distribution (Vz) will be calculated using noncompartmental analysis modules in FDA certified pharmacokinetic program WinNonlin Professional v5.2 (Pharsight, USA) by the Study Director. Furthermore, the Bioavailability will be estimated using the following formula:
• AUC(0-t) Area under the curve from the time of dosing to the last measurable concentration • AUC(0-∞) Area under the curve from the time of dosing extrapolated to infinity, based on the last observed concentration • CL Total body clearance, CL=Dose/AUC • Cmax Maximum observed concentration, occurring at Tmax • F Bioavailability • MRT(0-∞) Mean residence time from the time of dosing to infinity • Tmax Time of maximum observed concentration • T1/2 Terminal half-life=In(2)/λz • Vz Volume of distribution based on the terminal phase

For the next series, the target named is ErbB2 kinase protein (Homo sapiens (Human), UniProt P04626). Description: Kinase assay for ErbB2. The format is biochemical. The settings on record: read-out: Kinase inhibition IC50 (nM) ErbB2. The procedure:
The assay is performed similarly to the kinase assay for […] as described above, except ErbB2 kinase protein is used instead of EGFR kinase protein.

In the next series the test system is NCI-N87 cells. Briefly: Anti-proliferation assay of NCI-N87 cells (CCK-8). Type of series: cell-based. The settings on record: Homo sapiens, 72h. On the procedure: The anti-proliferative assays were performed in triplicates. 3000 cell/well of N87 cells were seeded in 96-well plate, and the cells were incubated for 24h at 37° C. to allow adherence. For the cell proliferation assay, N87 cells were cultured in full cell culture medium containing 0.3% v/v DMSO. A serials concentration of the tested compound (concentration range: 30 uM to 0.16 nM, 5-fold dilution) were added to the 96-welt plate. The incubation was continued for 72h. The culture medium was then removed, and the cell viability was measured by using CCK-8 cell proliferation kit as described in manual provided by the manufacturer. The log of the fractional growth inhibition was plotted against the log of the drug concentration, and the IC50 values were interpolated from the resulting linear regression curve fit. The IC50 value measured for Compound NT113 is <100 nM.

The mark [2] stands for this setting: male, Sprague Dawley, rat plasma, IV 1 mg/Kg.
[3] abbreviates: male, Sprague Dawley, rat plasma, PO 5 mg/Kg.

Here are results for 1 compound from patent US11524956B2, “Alkyne substituted quinazoline compound and methods of use” (Newgen Therapeutics, Inc., priority 2011, dated 2022).

Like-named read-outs stand apart in the source and are kept apart here. A value given as a limit tells only on which side of the number the result lay.

EGFR kinase, sequence (P00533 668-1210): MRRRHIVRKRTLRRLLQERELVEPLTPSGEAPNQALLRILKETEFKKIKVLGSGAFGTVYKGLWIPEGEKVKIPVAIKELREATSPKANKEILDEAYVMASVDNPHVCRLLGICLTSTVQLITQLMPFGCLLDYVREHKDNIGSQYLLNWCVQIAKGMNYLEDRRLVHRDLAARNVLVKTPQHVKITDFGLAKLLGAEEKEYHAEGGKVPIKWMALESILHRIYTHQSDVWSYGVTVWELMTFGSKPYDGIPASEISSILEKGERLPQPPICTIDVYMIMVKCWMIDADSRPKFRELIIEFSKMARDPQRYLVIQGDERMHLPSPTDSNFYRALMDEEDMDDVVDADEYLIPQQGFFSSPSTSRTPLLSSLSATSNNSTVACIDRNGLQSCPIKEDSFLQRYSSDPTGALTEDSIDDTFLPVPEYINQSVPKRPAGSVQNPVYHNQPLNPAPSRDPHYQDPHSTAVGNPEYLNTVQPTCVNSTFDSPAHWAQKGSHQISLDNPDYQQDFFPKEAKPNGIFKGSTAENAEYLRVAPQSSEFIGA
ErbB2 kinase protein, sequence (P04626 23-1255): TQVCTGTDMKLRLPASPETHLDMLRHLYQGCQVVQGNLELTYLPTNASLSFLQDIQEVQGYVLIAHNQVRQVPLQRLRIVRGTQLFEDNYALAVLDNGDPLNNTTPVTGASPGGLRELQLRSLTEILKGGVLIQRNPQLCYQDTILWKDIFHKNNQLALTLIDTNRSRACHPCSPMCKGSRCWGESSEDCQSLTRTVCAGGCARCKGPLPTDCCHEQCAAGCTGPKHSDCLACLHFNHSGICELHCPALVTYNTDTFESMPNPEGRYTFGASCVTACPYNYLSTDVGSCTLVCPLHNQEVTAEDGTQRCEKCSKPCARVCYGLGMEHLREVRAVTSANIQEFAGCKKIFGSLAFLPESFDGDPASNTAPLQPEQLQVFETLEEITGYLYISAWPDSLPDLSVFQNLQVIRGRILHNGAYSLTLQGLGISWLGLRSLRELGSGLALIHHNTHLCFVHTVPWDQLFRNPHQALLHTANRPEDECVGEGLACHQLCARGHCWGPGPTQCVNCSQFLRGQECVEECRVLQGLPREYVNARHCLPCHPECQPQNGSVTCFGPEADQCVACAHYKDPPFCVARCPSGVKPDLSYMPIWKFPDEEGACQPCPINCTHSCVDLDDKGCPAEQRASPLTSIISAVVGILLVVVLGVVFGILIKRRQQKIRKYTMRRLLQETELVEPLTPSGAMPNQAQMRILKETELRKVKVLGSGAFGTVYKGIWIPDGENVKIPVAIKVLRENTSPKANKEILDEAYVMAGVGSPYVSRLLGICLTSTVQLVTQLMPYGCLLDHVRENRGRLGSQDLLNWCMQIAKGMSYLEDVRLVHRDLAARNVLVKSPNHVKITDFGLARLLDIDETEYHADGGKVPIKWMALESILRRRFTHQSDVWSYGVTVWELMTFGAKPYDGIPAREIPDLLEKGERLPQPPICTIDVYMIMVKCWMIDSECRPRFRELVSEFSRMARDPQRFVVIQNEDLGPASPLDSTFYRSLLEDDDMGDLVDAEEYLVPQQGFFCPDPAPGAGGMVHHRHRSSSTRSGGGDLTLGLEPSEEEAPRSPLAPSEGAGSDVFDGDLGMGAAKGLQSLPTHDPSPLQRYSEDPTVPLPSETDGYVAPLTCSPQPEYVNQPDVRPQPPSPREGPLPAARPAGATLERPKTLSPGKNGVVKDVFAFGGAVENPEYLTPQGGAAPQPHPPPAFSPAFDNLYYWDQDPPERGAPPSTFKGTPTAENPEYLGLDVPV

Regarding `CN(C)C/C=C/C(=O)Nc1cc2c(Nc3ccc(F)c(Cl)c3)ncnc2cc1C#C[C@@H]1[C@H]2COC[C@@H]12` [Example 4, (E)-N-(4-(3-chloro-4-fluorophenylamino)-7-(2-((1R,5S,6s)-3-oxa-bicyclo[3.1.0]hexan-6-yl)ethynyl)quinazolin-6-yl)-4-(dimethylamino)but-2-enamide], the IC50 on EGFR kinase, in the series with BT474 cells, on ErbB2 kinase protein, in the series on NCI-N87 cells (read-out: Cell Proliferation Inhibition IC50 (nM) NCI-N87) and with NCI-N87 cells (read-out: IC50 NCI-N87 anti-proliferation) was less than 100 nM throughout. In addition, the bioavailability – broadly, the share of a dose that reaches the circulation, judged against a reference dose that is usually intravenous – in series [1] (male, Sprague Dawley, plasma, rat, PO 5 mg/Kg, using AUC(0-t) instead of AUC(0-∞), read-out: calculated oral bioavailability) was 80.5%. Further, the AUC(0-inf) (in general, total exposure, with the tail of the curve extrapolated) is 158 ng·h/mL in series [1] (setting [2]) and 555 ng·h/mL in series [1] (setting [3]). The values for the AUC(0-t) in series [1] (setting [2]) and in series [1] (setting [3]) were 135 ng·h/mL and 542 ng·h/mL, respectively. The results for the Cmax in series [1] (setting [2]) and in series [1] (setting [3]) were 44.4 ng/mL and 39.3 ng/mL, respectively. Besides, in series [1] (setting [2]), the clearance (usually a measure of how efficiently the substance is removed, as volume per time) is 105 mL/min/kg. In addition, the half-life (in general, the time in which the quantity being followed falls by half) in series [1] (setting [2]) is 7.48 h; in series [1] (setting [3]) it was 14.9 h. For the same compound, in series [1] (male, Sprague Dawley, rat plasma, IV 1 mg/Kg, read-out: Vz), the Vd is 20.5 L/kg. This compound showed a CL in series [1] (rat plasma, PO 5 mg/Kg) of 150 mL/min/kg. In series [1] (rat plasma, PO 5 mg/Kg), the Vz was found to be 58.1 L/kg. The F in series [1] (rat, IV 1 mg/Kg) is listed as 100%; in series [1] (rat, PO 5 mg/Kg, from AUC(0-∞)), 70.1%. The “oral bioavailability and brain penetration (qualitative)” value in series [1] (rat, oral administration) is “good oral bioavailability and brain penetration”.
